Experiments:
[1] = target: T1, Angiotensin II receptor (AT-1) type-1 (Rattus norvegicus, UniProt P29089+P25095); assay: In vitro displacement of [125I]angiotensin II from rat liver (Angiotensin 1 receptor) membrane preparation
T1 sequence (P29089 whole entry): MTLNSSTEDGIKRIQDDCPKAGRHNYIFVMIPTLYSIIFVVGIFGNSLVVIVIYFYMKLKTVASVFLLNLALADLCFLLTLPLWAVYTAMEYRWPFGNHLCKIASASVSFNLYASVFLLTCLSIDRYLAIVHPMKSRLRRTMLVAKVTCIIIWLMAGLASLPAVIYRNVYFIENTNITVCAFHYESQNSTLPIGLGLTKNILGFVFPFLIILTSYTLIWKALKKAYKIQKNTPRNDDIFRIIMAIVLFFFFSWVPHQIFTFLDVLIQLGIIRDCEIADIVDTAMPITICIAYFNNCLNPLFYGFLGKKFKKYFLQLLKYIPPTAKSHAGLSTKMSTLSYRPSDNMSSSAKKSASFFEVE
T1 sequence (P25095 whole entry): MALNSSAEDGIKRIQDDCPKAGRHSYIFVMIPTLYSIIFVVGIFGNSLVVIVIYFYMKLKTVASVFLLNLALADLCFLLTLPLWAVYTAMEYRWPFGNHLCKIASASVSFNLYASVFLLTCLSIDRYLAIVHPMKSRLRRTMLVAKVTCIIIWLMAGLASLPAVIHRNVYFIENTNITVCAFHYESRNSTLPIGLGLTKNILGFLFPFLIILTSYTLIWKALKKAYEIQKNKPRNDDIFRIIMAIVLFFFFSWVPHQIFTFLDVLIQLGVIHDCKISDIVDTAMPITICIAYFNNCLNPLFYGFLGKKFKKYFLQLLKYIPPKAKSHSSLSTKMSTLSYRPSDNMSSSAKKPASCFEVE

[2] = target: T2, Angiotensin II receptor (Rattus norvegicus) (UniProt P29089+P25095+P35351); assay: In vivo inhibition of pressor response induced by Angiotensin II (AII) following intravenous administration to pithed rats; assay type: functional, organism-based
[3] = target: T2, Angiotensin II receptor (Rattus norvegicus); assay: In vivo inhibition of pressor response induced by Angiotensin II (AII) following oral administration to pithed rats; assay type: functional, organism-based

T2 sequence (P35351 whole entry, looked up, one chain of several): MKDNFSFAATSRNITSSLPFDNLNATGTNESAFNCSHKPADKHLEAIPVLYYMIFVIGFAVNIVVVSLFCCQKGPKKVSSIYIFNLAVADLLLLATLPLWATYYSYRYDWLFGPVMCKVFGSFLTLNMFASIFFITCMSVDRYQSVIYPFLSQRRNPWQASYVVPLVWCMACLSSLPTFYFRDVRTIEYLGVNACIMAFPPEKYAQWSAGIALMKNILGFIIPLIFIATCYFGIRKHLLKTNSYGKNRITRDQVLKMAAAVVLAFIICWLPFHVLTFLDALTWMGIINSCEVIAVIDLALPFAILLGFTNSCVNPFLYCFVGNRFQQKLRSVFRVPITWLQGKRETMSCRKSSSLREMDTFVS

Row | IC50 [1] | ID50 [2] | ID50 [3] | Compound
1 | 100 pM | 0.3 mg/kg | 1.5 mg/kg | CCCc1nc(SC)c(C(=O)O)n1Cc1ccc(-c2ccccc2S(=O)(=O)NC(=O)NCC2CCCCC2)cc1
2 | 500 pM | 0.09 mg/kg | 0.8 mg/kg | CCCCc1nc(SC(F)F)c(C(=O)O)n1Cc1ccc(-c2ccccc2S(=O)(=O)NC(=O)CCC)cc1
3 | 200 pM | 0.22 mg/kg | 1.4 mg/kg | CCCc1nc(SC)c(C(=O)O)n1Cc1ccc(-c2ccccc2S(=O)(=O)NC(=O)NCc2ccccc2)cc1
4 | 100 pM | 0.35 mg/kg | – | CCCCc1nc(SC)c(C(=O)O)n1Cc1ccc(-c2ccccc2S(=O)(=O)NC(=O)NCC2CCCCC2)cc1
5 | 200 pM | 0.17 mg/kg | 1.1 mg/kg | CCCCc1nc(SC)c(C(=O)O)n1Cc1ccc(-c2ccccc2S(=O)(=O)NC(=O)NCC)cc1
6 | 200 pM | 0.09 mg/kg | 0.2 mg/kg | CCCCNC(=O)NS(=O)(=O)c1ccccc1-c1ccc(Cn2c(CCCC)nc(SC)c2C(=O)O)cc1
7 | 200 pM | 0.6 mg/kg | 1.7 mg/kg | CCCCc1nc(SC(F)F)c(C(=O)O)n1Cc1ccc(-c2ccccc2S(=O)(=O)NC(=O)CC2CCCCC2)cc1
8 | 70 pM | 0.13 mg/kg | 3 mg/kg | CCCc1nc(SC(F)F)c(C(=O)O)n1Cc1ccc(-c2ccccc2S(=O)(=O)NC(=O)Cc2cccs2)cc1
9 | 100 pM | 1.37 mg/kg | – | CCc1nc(SC)c(C(=O)O)n1Cc1ccc(-c2ccccc2S(=O)(=O)NC(=O)NCc2ccccc2)cc1
10 | 500 pM | 0.11 mg/kg | 0.7 mg/kg | CCCCc1nc(SC)c(C(=O)O)n1Cc1ccc(-c2ccccc2S(=O)(=O)NC(=O)NCCC)cc1
11 | 100 pM | – | – | CCCCc1nc(SC)c(C(=O)O)n1Cc1ccc(-c2ccccc2S(=O)(=O)NC(=O)NCc2ccccc2)cc1
12 | 70 pM | 0.22 mg/kg | 1.1 mg/kg | CCCc1nc(SC(F)F)c(C(=O)O)n1Cc1ccc(-c2ccccc2S(=O)(=O)NC(=O)CC2CCCCC2)cc1
13 | 500 pM | – | – | CCCc1nc(SC)c(C(=O)O)n1Cc1ccc(-c2ccccc2S(=O)(=O)NC(=O)NC2CCCCC2)cc1
14 | 1300 pM | 1.84 mg/kg | > 10 mg/kg | CCc1nc(SC)c(C(=O)O)n1Cc1ccc(-c2ccccc2S(=O)(=O)NC(=O)NCC2CCCCC2)cc1
15 | 1900 pM | 0.27 mg/kg | 4.9 mg/kg | CCCCc1nc(SC)c(C(=O)O)n1Cc1ccc(-c2ccccc2S(=O)(=O)NC(=O)NC)cc1
16 | 2300 pM | 0.52 mg/kg | – | CCCc1nc(SC)c(C(=O)O)n1Cc1ccc(-c2ccccc2S(=O)(=O)NC(=O)Nc2ccccc2)cc1
17 | 100 pM | – | 1 mg/kg | CCCc1nc(SC)c(C(=O)O)n1Cc1ccc(-c2ccccc2S(=O)(=O)NC(=O)NCC2CCCC2)cc1
18 | 1000 pM | 0.87 mg/kg | – | CCCc1nc(SC)c(C(=O)O)n1Cc1ccc(-c2ccccc2S(=O)(=O)NC(=O)Nc2ccc(C)cc2)cc1
19 | 100 pM | – | 1 mg/kg | CCCc1nc(SC)c(C(=O)O)n1Cc1ccc(-c2ccccc2S(=O)(=O)NC(=O)NCc2cccs2)cc1

The next lines start with the compound.

Row | Compound | IC50 [1] | ID50 [2] | ID50 [3]
20 | CCCc1nc(SC(F)F)c(C(=O)O)n1Cc1ccc(-c2ccccc2S(=O)(=O)NC(=O)CCc2ccccc2)cc1 | 100 pM | 0.64 mg/kg | –
21 | CCCCc1nc(SC)c(C(=O)O)n1Cc1ccc(-c2ccccc2S(=O)(=O)NC(=O)N(c2ccccc2)c2ccccc2)cc1 | 1200 pM | 5.8 mg/kg | –
22 | CCCCc1nc(SC)c(C(=O)O)n1Cc1ccc(-c2ccccc2S(=O)(=O)NC(=O)NC(c2ccccc2)c2ccccc2)cc1 | 400 pM | – | –
23 | CCCc1nc(SC(F)F)c(C(=O)O)n1Cc1ccc(-c2ccccc2S(=O)(=O)NC(=O)Cc2ccc3ccccc3c2)cc1 | 100 pM | – | –
24 | CCCc1nc(SC(F)F)c(C(=O)O)n1Cc1ccc(-c2ccccc2S(=O)(=O)NC(=O)Cc2ccccc2)cc1 | 200 pM | 0.26 mg/kg | 2 mg/kg
25 | CCCCc1nc(SC(F)F)c(C(=O)O)n1Cc1ccc(-c2ccccc2S(=O)(=O)NC(=O)Cc2ccccc2)cc1 | 150 pM | 0.36 mg/kg | 2.2 mg/kg
26 | CCCc1nc(SC(F)F)c(C(=O)O)n1Cc1ccc(-c2ccccc2S(=O)(=O)NC(=O)Cc2ccc(F)cc2)cc1 | 100 pM | 0.43 mg/kg | –
27 | CCCc1nc(SC(F)F)c(C(=O)O)n1Cc1ccc(-c2ccccc2S(=O)(=O)NC(=O)CCCc2ccccc2)cc1 | 700 pM | 0.52 mg/kg | –
28 | CCCc1nc(SC(F)F)c(C(=O)O)n1Cc1ccc(-c2ccccc2S(=O)(=O)NC(=O)Cc2ccccc2Cl)cc1 | 300 pM | 0.8 mg/kg | –
29 | CCCc1nc(SC(F)F)c(C(=O)O)n1Cc1ccc(-c2ccccc2S(=O)(=O)NC(=O)Cc2ccc3c(c2)OCO3)cc1 | 300 pM | 0.35 mg/kg | 10 mg/kg
30 | CCCc1nc(SC(F)F)c(C(=O)O)n1Cc1ccc(-c2ccccc2S(=O)(=O)NC(=O)CCc2cccs2)cc1 | 30 pM | 0.33 mg/kg | 3.1 mg/kg
31 | CCCc1nc(SC(F)F)c(C(=O)O)n1Cc1ccc(-c2ccccc2S(=O)(=O)NC(=O)C(C)c2ccccc2)cc1 (configuration not stated) | 300 pM | – | –

From ChEMBL document CHEMBL1128069, “Balanced AT1 and AT2 angiotensin II antagonists. I. New orally active 5-carboxyl imidazolyl biphenyl sulfonylureas” (Bioorg Med Chem Lett, 1995)
